In patent publication US12497393B2, “β-lactam compound, use thereof and preparation method therefor” (priority 2020, dated 2025):
In brackets after ≈: the same amount, converted by molar mass. Like-named read-outs stand apart in the source and are kept apart here.

Tests used:
Test in all cases: Antibacterial activity MIC assay (two-fold dilution agar plating)
Assay type in all cases: cell-based
[1] = test system: Acinetobacter baumannii; conditions: Acinetobacter baumannii, read-out: Minimal Inhibitory Concentration (MIC)
Protocol: (§1) Antibacterial Activity-Evaluating Method (MIC Assay)
(§2) In this study, the compounds of the present invention were tested for their antibacterial activities by using two-fold dilution agar plating method and Denley Multipoint Inoculator A400 according to the guidelines of the CLSI/NCCLS standard. The tested strains were amplified by hydrolyzed casein peptone (Mueller-Hinton Agar) broth and Brain and Heart Infusion. The strains used in this study were bacterial strains that were purchased from ATCC or clinically isolated in Chinese hospitals. Aztreonam, polymyxin or levofloxacin was used as positive control. The drugs were diluted with hydrolyzed casein peptone broth to the desired concentrations including 128.0, 64.0, 32.0, 16.0, 8.0, 4.0, 2.0, 1.0, 0.5, 0.25, 0.125, 0.06 and 0.03 μg/mL, and then placed respectively into each well and mixed thoroughly. After inoculation, the tested strains were incubated for 18 hours at a constant temperature of 35° C., and their growth levels were observed. The drug concentration with no microbial growth in the well was recorded as the lowest Minimal Inhibitory Concentration (MIC).

[2] = test system: Citrobacter freundii; conditions: ATCC43864; Citrobacter freundii ATCC 43864; read-out: Minimal Inhibitory Concentration (MIC)
Protocol: as §1, §2

[3] = test system: Enterobacter aerogenes; conditions: Klebsiella aerogenes, ATCC13048; Enterobacter aerogenes ATCC 13048; read-out: Minimal Inhibitory Concentration (MIC)
Protocol: as §1, §2

[4] = test system: Enterobacter cloacae; conditions: read-out: Minimal Inhibitory Concentration (MIC)
Protocol: as §1, §2

[5] = test system: Escherichia coli; conditions: Escherichia coli, read-out: Minimal Inhibitory Concentration (MIC)
Protocol: as §1, §2

[6] = test system: Klebsiella Pneumoniae; conditions: Klebsiella pneumoniae, read-out: Minimal Inhibitory Concentration (MIC)
Protocol: as §1, §2

[7] = test system: Proteus mirabilis; conditions: Proteus mirabilis, ATCC49565, Proteus mirabilis ATCC 49565; read-out: Minimal Inhibitory Concentration (MIC)
Protocol: as §1, §2

[8] = test system: Proteus vulgaris; conditions: Proteus vulgaris, ATCC29905, Proteus vulgaris ATCC 29905; read-out: Minimal Inhibitory Concentration (MIC)
Protocol: as §1, §2

[9] = test system: Providencia rettgeri; conditions: Providencia rettgeri, ATCC31052, Providencia rettgeri ATCC 31052; read-out: Minimal Inhibitory Concentration (MIC)
Protocol: as §1, §2

[10] = test system: Pseudomonas aeruginosa; conditions: read-out: Minimal Inhibitory Concentration (MIC)
Protocol: as §1, §2

[11] = test system: Salmonella typhi; conditions: Salmonella enterica, TYPHI, read-out: Minimal Inhibitory Concentration (MIC)
Protocol: as §1, §2

[12] = test system: Serratia marcescens; conditions: ATCC21074; Serratia marcescens ATCC 21074; read-out: Minimal Inhibitory Concentration (MIC)
Protocol: as §1, §2

[13] = test system: Shigella flexneri; conditions: ATCC12022; Shigella flexneri ATCC 12022; read-out: Minimal Inhibitory Concentration (MIC)
Protocol: as §1, §2

[14] = test system: Stenotrophomonas maltophilia; conditions: ATCC13636; Stenotrophomonas maltophilia ATCC 13636; read-out: Minimal Inhibitory Concentration (MIC)
Protocol: as §1, §2

[15] = ATCC19606, Acinetobacter baumannii ATCC 19606
[16] = ATCC43560, Enterobacter cloacae ATCC 43560
[17] = Enterobacter cloacae CDC1000654
[18] = ATCC25922, Escherichia coli ATCC 25922, ESBLs(−)
[19] = ATCC35218, Escherichia coli ATCC 35218, ESBLs(+)
[20] = Escherichia coli 08-85, mcr-1(+)
[21] = Escherichia coli 13-43, mcr-1(+)
[22] = Escherichia coli 13-66, mcr-1(+)
[23] = Escherichia coli 16-1, ESBLs(+)
[24] = Escherichia coli 16-7, ESBLs(−)
[25] = Escherichia coli 17-R28, CRE, NDM-1(+)
[26] = Escherichia coli CDC1001728, NDM-1(+)
[27] = ATCC700603, Klebsiella Pneumoniae ATCC 700603, ESBLs(+)
[28] = ATCCBAA2146, Klebsiella Pneumoniae ATCC BAA-2146, NDM-1(+)
[29] = Klebsiella Pneumoniae 09-20, mcr-1(+)
[30] = Klebsiella Pneumoniae 16-2, ESBLs(−)
[31] = Klebsiella Pneumoniae 16-14, ESBLs(+)
[32] = Klebsiella Pneumoniae 17-R27, CRE
[33] = ATCC27853, Pseudomonas aeruginosa ATCC 27853

SMILES: CC1(C)[C@H](NC(=O)/C(=N\OC2(C(=O)O)CC2)c2csc(N)n2)C(=O)N1OS(=O)(=O)O [Compound A-1]
- MIC [1, 15]: 16 µg/mL (≈ 34.5 µM)
- MIC ([1]; Acinetobacter baumannii 16-16): 64 µg/mL (≈ 138 µM)
- MIC ([1]; Acinetobacter baumannii 16-33): 32 µg/mL (≈ 69 µM)
- MIC [2]: 0.12 µg/mL (≈ 0.259 µM)
- MIC [3]: 0.12 µg/mL (≈ 0.259 µM)
- MIC [4, 16]: 0.06 µg/mL (≈ 0.129 µM)
- MIC [4, 17]: 2 µg/mL (≈ 4.32 µM)
- MIC [5, 18]: 0.12 µg/mL (≈ 0.259 µM)
- MIC [5, 19]: 0.06 µg/mL (≈ 0.129 µM)
- MIC [5, 20]: 0.12 µg/mL (≈ 0.259 µM)
- MIC [5, 21]: 0.12 µg/mL (≈ 0.259 µM)
- MIC [5, 22]: 0.12 µg/mL (≈ 0.259 µM)
- MIC [5, 23]: 0.06 µg/mL (≈ 0.129 µM)
- MIC [5, 24]: 0.12 µg/mL (≈ 0.259 µM)
- MIC [5, 25]: 4 µg/mL (≈ 8.63 µM)
- MIC [5, 26]: 0.25 µg/mL (≈ 0.539 µM)
- MIC [6, 27]: 4 µg/mL (≈ 8.63 µM)
- MIC [6, 28]: 0.5 µg/mL (≈ 1.08 µM)
- MIC [6, 29]: 0.06 µg/mL (≈ 0.129 µM)
- MIC [6, 30]: 2 µg/mL (≈ 4.32 µM)
- MIC [6, 31]: 0.12 µg/mL (≈ 0.259 µM)
- MIC [6, 32]: 0.25 µg/mL (≈ 0.539 µM)
- MIC [7]: ≤ 0.03 µg/mL
- MIC [8]: ≤ 0.03 µg/mL
- MIC [9]: ≤ 0.03 µg/mL
- MIC [10, 33]: 8 µg/mL (≈ 17.3 µM)
- MIC ([10]; Pseudomonas aeruginosa 16-11): 8 µg/mL (≈ 17.3 µM)
- MIC ([10]; Pseudomonas aeruginosa PAO1): 2 µg/mL (≈ 4.32 µM)
- MIC [11]: 0.06 µg/mL (≈ 0.129 µM)
- MIC [12]: 0.25 µg/mL (≈ 0.539 µM)
- MIC [13]: 0.12 µg/mL (≈ 0.259 µM)
- MIC [14]: 8 µg/mL (≈ 17.3 µM)

SMILES: CC1(C)[C@H](NC(=O)/C(=N\OC2(C(=O)O)CCC2)c2csc(N)n2)C(=O)N1OS(=O)(=O)O [Compound A-2]
- MIC [1, 15]: 16 µg/mL (≈ 33.5 µM)
- MIC ([1]; Acinetobacter baumannii 16-16): > 64 µg/mL
- MIC ([1]; Acinetobacter baumannii 16-33): 16 µg/mL (≈ 33.5 µM)
- MIC [2]: 0.12 µg/mL (≈ 0.251 µM)
- MIC [3]: 1 µg/mL (≈ 2.09 µM)
- MIC [4, 16]: 0.12 µg/mL (≈ 0.251 µM)
- MIC [4, 17]: 2 µg/mL (≈ 4.19 µM)
- MIC [5, 18]: 0.12 µg/mL (≈ 0.251 µM)
- MIC [5, 19]: 0.06 µg/mL (≈ 0.126 µM)
- MIC [5, 20]: 0.12 µg/mL (≈ 0.251 µM)
- MIC [5, 21]: 0.12 µg/mL (≈ 0.251 µM)
- MIC [5, 22]: 0.12 µg/mL (≈ 0.251 µM)
- MIC [5, 23]: 0.06 µg/mL (≈ 0.126 µM)
- MIC [5, 24]: 0.12 µg/mL (≈ 0.251 µM)
- MIC [5, 25]: 16 µg/mL (≈ 33.5 µM)
- MIC [5, 26]: 0.5 µg/mL (≈ 1.05 µM)
- MIC [6, 27]: 1 µg/mL (≈ 2.09 µM)
- MIC [6, 28]: 0.25 µg/mL (≈ 0.524 µM)
- MIC [6, 29]: 0.12 µg/mL (≈ 0.251 µM)
- MIC [6, 30]: 2 µg/mL (≈ 4.19 µM)
- MIC [6, 31]: 0.12 µg/mL (≈ 0.251 µM)
- MIC [6, 32]: 0.25 µg/mL (≈ 0.524 µM)
- MIC [7]: ≤ 0.03 µg/mL
- MIC [8]: ≤ 0.03 µg/mL
- MIC [9]: ≤ 0.03 µg/mL
- MIC [10, 33]: 4 µg/mL (≈ 8.38 µM)
- MIC ([10]; Pseudomonas aeruginosa 16-11): 4 µg/mL (≈ 8.38 µM)
- MIC ([10]; Pseudomonas aeruginosa PAO1): 1 µg/mL (≈ 2.09 µM)
- MIC [11]: 0.12 µg/mL (≈ 0.251 µM)
- MIC [12]: 0.25 µg/mL (≈ 0.524 µM)
- MIC [13]: 0.25 µg/mL (≈ 0.524 µM)
- MIC [14]: 4 µg/mL (≈ 8.38 µM)

SMILES: CC1(C)[C@H](NC(=O)/C(=N\OC2(C(=O)O)CCCC2)c2csc(N)n2)C(=O)N1OS(=O)(=O)O [Compound A-3]
- MIC [1, 15]: 32 µg/mL (≈ 65.1 µM)
- MIC ([1]; Acinetobacter baumannii 16-16): > 64 µg/mL
- MIC ([1]; Acinetobacter baumannii 16-33): 32 µg/mL (≈ 65.1 µM)
- MIC [2]: 0.25 µg/mL (≈ 0.509 µM)
- MIC [3]: 0.5 µg/mL (≈ 1.02 µM)
- MIC [4, 16]: 0.5 µg/mL (≈ 1.02 µM)
- MIC [4, 17]: 4 µg/mL (≈ 8.14 µM)
- MIC [5, 18]: 0.25 µg/mL (≈ 0.509 µM)
- MIC [5, 19]: 0.25 µg/mL (≈ 0.509 µM)
- MIC [5, 20]: 0.25 µg/mL (≈ 0.509 µM)
- MIC [5, 21]: 0.5 µg/mL (≈ 1.02 µM)
- MIC [5, 22]: 0.25 µg/mL (≈ 0.509 µM)
- MIC [5, 23]: 0.25 µg/mL (≈ 0.509 µM)
- MIC [5, 24]: 0.5 µg/mL (≈ 1.02 µM)
- MIC [5, 25]: 8 µg/mL (≈ 16.3 µM)
- MIC [5, 26]: 0.5 µg/mL (≈ 1.02 µM)
- MIC [6, 27]: 1 µg/mL (≈ 2.03 µM)
- MIC [6, 28]: 0.5 µg/mL (≈ 1.02 µM)
- MIC [6, 29]: 0.25 µg/mL (≈ 0.509 µM)
- MIC [6, 30]: 2 µg/mL (≈ 4.07 µM)
- MIC [6, 31]: 0.5 µg/mL (≈ 1.02 µM)
- MIC [6, 32]: 0.25 µg/mL (≈ 0.509 µM)
- MIC [7]: 0.06 µg/mL (≈ 0.122 µM)
- MIC [8]: ≤ 0.03 µg/mL
- MIC [9]: ≤ 0.03 µg/mL
- MIC [10, 33]: 4 µg/mL (≈ 8.14 µM)
- MIC ([10]; Pseudomonas aeruginosa 16-11): 4 µg/mL (≈ 8.14 µM)
- MIC ([10]; Pseudomonas aeruginosa PAO1): 2 µg/mL (≈ 4.07 µM)
- MIC [11]: 0.5 µg/mL (≈ 1.02 µM)
- MIC [12]: 0.5 µg/mL (≈ 1.02 µM)
- MIC [13]: 0.25 µg/mL (≈ 0.509 µM)
- MIC [14]: 4 µg/mL (≈ 8.14 µM)
